Source: patent US10947213B1 (Merck Patent GmbH, priority 2015, dated 2021)
Where a name gives a salt, the structure may show the parent alone.

Target: T1, TLR7/NFKb HEK cells (Homo sapiens, UniProt Q9NYK1)
T1 construct: expressed in transfected cells; host or cells: HEK cells (TLR7/NFKb reporter line)
T1 sequence (Q9NYK1 27-1049): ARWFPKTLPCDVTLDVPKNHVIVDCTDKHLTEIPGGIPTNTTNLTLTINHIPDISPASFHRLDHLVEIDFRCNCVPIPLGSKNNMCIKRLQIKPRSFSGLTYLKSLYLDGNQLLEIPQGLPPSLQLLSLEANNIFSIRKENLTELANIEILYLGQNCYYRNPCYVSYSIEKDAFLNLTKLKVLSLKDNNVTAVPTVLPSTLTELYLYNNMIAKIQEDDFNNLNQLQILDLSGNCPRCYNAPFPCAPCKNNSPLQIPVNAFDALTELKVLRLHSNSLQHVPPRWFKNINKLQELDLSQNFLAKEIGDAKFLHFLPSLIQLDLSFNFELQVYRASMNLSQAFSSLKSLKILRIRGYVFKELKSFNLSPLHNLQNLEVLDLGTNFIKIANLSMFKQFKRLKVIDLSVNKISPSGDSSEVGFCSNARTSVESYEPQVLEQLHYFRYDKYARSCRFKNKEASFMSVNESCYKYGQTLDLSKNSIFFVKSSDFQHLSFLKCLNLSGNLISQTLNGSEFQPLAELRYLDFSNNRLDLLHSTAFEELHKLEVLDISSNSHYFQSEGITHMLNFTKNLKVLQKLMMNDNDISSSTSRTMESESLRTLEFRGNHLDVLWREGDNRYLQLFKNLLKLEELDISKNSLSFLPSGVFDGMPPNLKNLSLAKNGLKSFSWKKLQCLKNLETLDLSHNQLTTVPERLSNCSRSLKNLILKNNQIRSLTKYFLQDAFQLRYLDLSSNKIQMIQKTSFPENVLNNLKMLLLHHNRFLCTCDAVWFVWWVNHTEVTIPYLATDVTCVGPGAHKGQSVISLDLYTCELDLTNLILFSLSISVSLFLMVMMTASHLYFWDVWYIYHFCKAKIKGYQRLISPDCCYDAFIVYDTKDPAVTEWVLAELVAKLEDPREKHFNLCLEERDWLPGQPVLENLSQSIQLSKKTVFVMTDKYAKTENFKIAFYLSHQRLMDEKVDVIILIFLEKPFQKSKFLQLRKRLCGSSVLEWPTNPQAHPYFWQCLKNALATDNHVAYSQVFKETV
Experiment: HEK Cell Assay (TLR7/NFKb reporter, Steady-Glo luciferase readout)
Format: cell-based
Conditions: 30 min compound preincubation, then R*48 agonist for 5 hours, read-out: Potency
In short: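 Steady-Glo luminescence after 5 h stimulation with R*48 agonist, following 30 min compound preincubation. Assay run in HEK cells carrying a TLR7/NFKb luciferase reporter, plated at 5000 cells/well and grown 24 h at 37° C (10% CO2) before treatment.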

Structure (SMILES)	IC50
N[C@H]1C[C@@H](C2CC2)CN(c2ccc(F)c3nccnc23)C1 (relative stereo) [Compound 366, cis-5-cyclopropyl-1-(8-fluoroquinoxalin-5-yl)piperidin-3-amine]	1000 to 10000 nM
C[C@H]1C[C@@H](NC(=O)CC2CCN(C)CC2)CN(c2ccc(C(F)F)c3nccnc23)C1 [Compound 328, N-[(3R,5S)-1-[8-(difluoromethyl)quinoxalin-5-yl]-5-methylpiperidin-3-yl]-2-(1-methylpiperidin-4-yl)acetamide]	< 1000 nM
C[C@H]1C[C@@H](NC(=O)CC2CNC2)CN(c2ccc(C(F)F)c3nccnc23)C1 [Compound 324, 2-(azetidin-3-yl)-N-[(3R,5S)-1-[8-(difluoromethyl)quinoxalin-5-yl]-5-methylpiperidin-3-yl]acetamide]	1000 to 10000 nM
C[C@H]1C[C@@H](NC(=O)C2CC(F)(F)C2)CN(c2ccc(C#N)c3nccnc23)C1 [Compound 235, N-[(3R,5S)-1-(8-cyanoquinoxalin-5-yl)-5-methylpiperidin-3-yl]-3,3-difluorocyclobutane-1-carboxamide]	< 1000 nM
COCCN[C@@H]1C[C@H](C)CN(c2ccnc3nccnc23)C1 [Compound 18, (3R,5S)—N-(2-methoxyethyl)-5-methyl-1-(pyrido[2,3-b]pyrazin-8-yl)piperidin-3-amine]	> 10000 nM
C[C@H]1C[C@@H](NC(=O)COC(C)(C)C)CN(c2ccnc3nccnc23)C1 [Compound 164, 2-(tert-butoxy)-N-[(3R,5S)-5-methyl-1-[pyrido[2,3-b]pyrazin-8-yl]piperidin-3-yl]acetamide]	> 10000 nM
CC1(C)C[C@@H](NC(=O)C(N)C(F)(F)F)CN(c2ccc(C#N)c3nccnc23)C1 (single isomer, unassigned) [Compound 211]	1000 to 10000 nM
CCN(CC)CC(=O)N(C)CC1CCN(c2ccnc3nccnc23)CC1 [Compound 405, 2-Diethylamino-N-methyl-N-(1-pyrido[2,3-b]pyrazin-8-yl-piperidin-4-ylmethyl)-acetamide]	1000 to 10000 nM
CC(C)[C@H](O)C(=O)N[C@@H]1C[C@H](C)CN(c2ccc(C(N)=O)c3ncccc23)C1 [Compound 181, 5-[(3R,5S)-3-[(2S)-2-hydroxy-3-methylbutanamido]-5-methylpiperidin-1-yl]quinoline-8-carboxamide]	> 10000 nM
CC(C)(C)OCC(=O)NCC1CCN(c2ccc(C#N)c3ncccc23)CC1 [Compound 412, 2-tert-Butoxy-N-[1-(8-cyano-quinolin-5-yl)-piperidin-4-ylmethyl]-acetamide]	> 10000 nM
C[C@@H]1CN(c2ccc(C#N)c3nccnc23)C[C@H](CN2CCN(C)CC2)O1 [Compound 50, 8-((2R,6S)-2-methyl-6-((4-methylpiperazin-1-yl)methyl)morpholino)quinoxaline-5-carbonitrile]	< 1000 nM
C[C@H]1C[C@@H](NCC(=O)N2CCC2)CN(c2ccc(C(F)(F)F)c3ncccc23)C1 [Compound 568, 1-Azetidin-1-yl-2-[(3R,5S)-5-methyl-1-(8-trifluoromethyl-quinolin-5-yl)-piperidin-3-ylamino]-ethanone]	< 1000 nM
C[C@H]1C[C@@H](NC(=O)CN(C)C)CN(c2ccc(C#N)c3nccnc23)C1 [Compound 32, N-((3R,5S)-1-(8-cyanoquinoxalin-5-yl)-5-methylpiperidin-3-yl)-2-(dimethylamino)acetamide]	< 1000 nM
CN(C)CC(=O)N[C@H]1C[C@@H](C2CC2)CN(c2ccc(C#N)c3nccnc23)C1 (relative stereo) [Compound 179, cis-N-[1-(8-cyanoquinoxalin-5-yl)-5-cyclopropylpiperidin-3-yl]-2-(dimethylamino)acetamide]	1000 to 10000 nM

The next lines start with the values.

IC50	Structure (SMILES)
< 1000 nM	N#Cc1ccc(N2CC(N)CC(C3CC3)C2)c2nccnc12 (single isomer, unassigned) [Compound 70, 8-(3-amino-5-cyclopropylpiperidin-1-yl)quinoxaline-5-carbonitrile]
< 1000 nM	CCN(C)CCNC(=O)C1CCN(c2ccc(C#N)c3ncccc23)CC1 [Compound 416, 1-(8-Cyano-quinolin-5-yl)-piperidine-4-carboxylic Acid [2-(ethyl-methyl-amino)-ethyl]-amide]
< 1000 nM	C[C@H]1C[C@@H](NC(=O)CC2CCN(C)CC2)CN(c2ccc(F)c3ncccc23)C1 [Compound 471, N-[(3R,5S)-1-(8-Fluoro-quinolin-5-yl)-5-methyl-piperidin-3-yl]-2-(1-methyl-piperidin-4-yl)-acetamide]
1000 to 10000 nM	C[C@H]1C[C@@H](NC(=O)C(N)C(F)(F)F)CN(c2ccc(C#N)c3nccnc23)C1 (single isomer, unassigned) [Compound 112, hydrochloride]
< 1000 nM	CN1CCN(C(=O)CCC(=O)N[C@H]2C[C@@H](C(F)(F)F)CN(c3ccc(C#N)c4ncccc34)C2)CC1 (racemic) [Compound 496, cis-N—[-1-(8-Cyano-quinolin-5-yl)-5-trifluoromethyl-piperidin-3-yl]-4-(4-methyl-piperazin-1-yl)-4-oxo-butyramide]
1000 to 10000 nM	CCN(CC)C(=O)CCC(=O)N[C@@H]1C[C@H](C(F)(F)F)CN(c2ccc(C#N)c3ncccc23)C1 [Compound 579, N-[(3R,5S)-1-(8-Cyano-quinolin-5-yl)-5-trifluoromethyl-piperidin-3-yl]-N′,N′-diethyl-succinamide]
< 1000 nM	C[C@H]1C[C@@H](NC(=O)CC2CCCN(C)C2)CN(c2ccc(C(F)F)c3nccnc23)C1 (stereo partly drawn) [Compound 318, N-[(3R,5S)-1-[8-(difluoromethyl)quinoxalin-5-yl]-5-methylpiperidin-3-yl]-2-(1-methylpiperidin-3-yl)acetamide]
1000 to 10000 nM	CC1CC(N)CN(c2ccc(F)c3nccnc23)C1 (single isomer, unassigned) [Compound 340]
< 1000 nM	C[C@H]1C[C@@H](NCC#N)CN(c2ccc(C#N)c3nccnc23)C1 [Compound 38, 8-((3R,5S)-3-(cyanomethylamino)-5-methylpiperidin-1-yl)quinoxaline-5-carbonitrile]
> 10000 nM	C[C@H]1C[C@@H](NC(=O)CN)CN(c2ccnc3nccnc23)C1 [Compound 34, 2-amino-N-((3R,5S)-5-methyl-1-(pyrido[2,3-b]pyrazin-8-yl)piperidin-3-yl)acetamide]
> 10000 nM	CCN(CC)CCNC(=O)C1CCN(c2ncc(F)c3nccnc23)CC1 [Compound 456, 1-(8-Fluoro-pyrido[3,4-b]pyrazin-5-yl)-piperidine-4-carboxylic Acid (2-diethylamino-ethyl)-amide]
1000 to 10000 nM	CC(C)[C@H](O)C(=O)N[C@@H]1C[C@H](C)CN(c2ccnc3nccnc23)C1 [Compound 22, (S)-2-hydroxy-3-methyl-N-((3R,5S)-5-methyl-1-(pyrido[2,3-b]pyrazin-8-yl)piperidin-3-yl)butanamide]
> 10000 nM	C[C@H]1C[C@@H](NC(=O)Cc2cn(C)cn2)CN(c2ccnc3nccnc23)C1 [Compound 133, N-[(3R,5S)-5-methyl-1-[pyrido[2,3-b]pyrazin-8-yl]piperidin-3-yl]-2-(1-methyl-1H-imidazol-4-yl)acetamide]
< 1000 nM	CC1CC(N)CN(c2ccc(F)c3nccnc23)C1 (single isomer, unassigned) [Compound 339]
1000 to 10000 nM	C[C@H]1C[C@@H](NC(=O)N2C[C@@H](F)[C@@H](F)C2)CN(c2ccc(C(F)(F)F)c3ncccc23)C1 [Compound 583, (3R,4S)-3,4-Difluoro-pyrrolidine-1-carboxylic Acid [(3R,5S)-5-methyl-1-(8-trifluoromethyl-quinolin-5-yl)-piperidin-3-yl]-amide]
1000 to 10000 nM	CCN(CC)CC(=O)NC1CCN(c2ccnc3nccnc23)CC1 [Compound 390, 2-Diethylamino-N-(1-pyrido[2,3-b]pyrazin-8-yl-piperidin-4-yl)-acetamide]
> 10000 nM	CCC(C)C(=O)N[C@@H]1C[C@H](C)CN(c2ccnc3nccnc23)C1 (single isomer, unassigned) [Compound 157]
1000 to 10000 nM	CCN(CC)C1CCN(CC2CCN(c3ccnc4nccnc34)CC2)CC1 [Compound 4, N,N-diethyl-1-((1-(pyrido[2,3-b]pyrazin-8-yl)piperidin-4-yl)methyl)piperidin-4-amine]
1000 to 10000 nM	CN1CCCC1C(=O)NCC1CCN(c2ccnc3nccnc23)CC1 (stereo not drawn) [Compound 411, 1-Methyl-pyrrolidine-2-carboxylic acid (1-pyrido[2,3-b]pyrazin-8-yl-piperidin-4-ylmethyl)-amide]
